Measurements published in ChEMBL document CHEMBL1201862, “PubChem BioAssay data set” (2004).
Activity calls are given as the source filed them.

Key:
[1] = test system: HEK293; assay: EBV LMP1 TES2 canonical NF-kB signalling blockers – cell-based, HEK293, luciferase, cherry-pick, dose response (AID 588343); assay type: functional, Homo sapiens; conditions: Homo sapiens, HEK293
[2] = target: FAD-linked sulfhydryl oxidase ALR (Homo sapiens, UniProt P55789); assay: ALR-catalysed DTT oxidation blockers – biochemical, H2O2 detection, luminescence, cherry-pick, dose response (AID 493248)
[3] = NIH-3T3 fibroblast cytotoxicity, dose response, cytotoxicity control, cell-based, fluorescence, Alamar Blue, secondary assay (AID 2327); assay type: functional;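 note: NIH-3T3 mouse fibroblasts cultured with fluconazole at 8 µg/mL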
[4] = Luminescence Cell-Based Dose Response HTS to Identify Inhibitors of 5'UTR Stem-Loop Driven Prion Protein mRNA Translation in H4 Neuroglioblastoma Cells. [Related pubchem assays: 1827 (Project Summary), 1813 (Primary HTS)]; assay type: functional
[5] = alpha-synuclein stem-loop luciferase translation blockers – H4 neuroglioma cells, luminescence, confirmation (AID 1988); assay type: functional, cell-based
[6] = target: Prothrombin (Homo sapiens, UniProt P00734); assay: Thrombin 1536 HTS Dose Response Confirmation. [Related pubchem assays: 1046 (Thrombin 1536 HTS; hits were confirmed in this assay)]; assay type: functional
[7] = test system: BJ; assay: BJ-TERT fibroblast viability loss – cell-based, RAS-independent, luminescence, dose response (AID 1933); assay type: functional; conditions: Homo sapiens
[8] = test system: BJ; assay: cells; assay type: functional, cell-based; conditions: Homo sapiens
[9] = target: Luciferin 4-monooxygenase (Photinus pyralis, UniProt P08659); assay: inhibition of purified Photinus pyralis luciferase – biochemical, luminescence, dose response (AID 1891)
[10] = Luminescence Cell-Based Dose Confirmation HTS to Identify Inhibitors of Platelet Dense Granule Release. [Related pubchem assays: 1663 (Primary HTS), 1678 (Summary of Project)]; assay type: functional
[11] = test system: BJ; assay: BJ-TERT-LT-ST fibroblast viability loss – cell-based, RAS-independent, luminescence, dose response (AID 1935); assay type: functional; conditions: Homo sapiens;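 note: BJ fibroblasts immortalized with TERT plus LT and ST oncogenes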
[12] = DRD fibroblast viability loss – cell-based, non-viral oncogenic, luminescence, dose response (AID 1934); assay type: functional; conditions: Homo sapiens
[13] = target: T1, Histone-lysine N-methyltransferase NSD2 (Homo sapiens, UniProt O96028); assay type: biochemical
T1 sequence (O96028 whole entry): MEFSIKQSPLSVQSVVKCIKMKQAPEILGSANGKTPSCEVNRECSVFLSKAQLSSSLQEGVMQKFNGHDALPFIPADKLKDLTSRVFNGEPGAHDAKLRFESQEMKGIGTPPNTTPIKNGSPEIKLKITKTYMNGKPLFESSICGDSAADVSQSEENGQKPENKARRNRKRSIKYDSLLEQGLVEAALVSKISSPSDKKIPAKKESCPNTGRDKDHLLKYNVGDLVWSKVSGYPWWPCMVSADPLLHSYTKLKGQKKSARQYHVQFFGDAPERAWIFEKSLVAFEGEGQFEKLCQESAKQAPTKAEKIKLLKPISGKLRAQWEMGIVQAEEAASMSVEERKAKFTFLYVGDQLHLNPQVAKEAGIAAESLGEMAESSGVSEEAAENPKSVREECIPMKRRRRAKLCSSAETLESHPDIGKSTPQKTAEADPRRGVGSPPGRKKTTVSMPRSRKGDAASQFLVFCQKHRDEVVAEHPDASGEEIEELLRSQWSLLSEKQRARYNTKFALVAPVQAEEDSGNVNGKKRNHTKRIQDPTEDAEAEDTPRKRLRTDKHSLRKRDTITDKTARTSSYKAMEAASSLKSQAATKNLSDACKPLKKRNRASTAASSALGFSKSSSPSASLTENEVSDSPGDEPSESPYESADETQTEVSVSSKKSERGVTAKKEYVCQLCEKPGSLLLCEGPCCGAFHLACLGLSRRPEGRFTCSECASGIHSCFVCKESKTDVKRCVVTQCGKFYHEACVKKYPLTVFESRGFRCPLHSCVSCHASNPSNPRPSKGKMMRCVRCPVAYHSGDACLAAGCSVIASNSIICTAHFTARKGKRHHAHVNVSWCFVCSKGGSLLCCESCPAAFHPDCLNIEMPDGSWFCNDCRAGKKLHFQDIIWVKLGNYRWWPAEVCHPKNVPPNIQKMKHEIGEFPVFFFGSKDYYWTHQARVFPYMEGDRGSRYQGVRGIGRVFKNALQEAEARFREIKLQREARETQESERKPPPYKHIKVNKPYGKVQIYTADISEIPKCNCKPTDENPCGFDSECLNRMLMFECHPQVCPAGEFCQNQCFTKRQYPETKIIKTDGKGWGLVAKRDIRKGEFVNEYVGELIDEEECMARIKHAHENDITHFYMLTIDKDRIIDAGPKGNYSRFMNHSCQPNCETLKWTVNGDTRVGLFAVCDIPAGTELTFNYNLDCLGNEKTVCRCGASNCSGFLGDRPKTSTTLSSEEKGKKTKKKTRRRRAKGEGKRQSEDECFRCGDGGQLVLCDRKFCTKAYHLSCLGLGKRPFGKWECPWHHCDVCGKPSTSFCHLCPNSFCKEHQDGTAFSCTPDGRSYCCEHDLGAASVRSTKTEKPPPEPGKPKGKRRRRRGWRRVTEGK

[14] = target: Paired box protein Pax-8 (Homo sapiens, UniProt Q06710); assay: PAX8 transcriptional activity inhibition in RMG-I – RMG-I cells, luciferase, cherry-pick, dose response (AID 687027); assay type: functional, cell-based;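 note: luciferase reporter driven by Pax8 target thyroperoxidase promoter measured by SteadyGlo luminescence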
[15] = OVCAR8 cell viability loss – plate reader, dry powder samples, PAX8 project, dose response (AID 743197); assay type: functional, cell-based; conditions: OVCAR-8
[16] = target: T2, Rac GTPase-activating protein 1 (Homo sapiens, UniProt Q9H0H5); assay: blockers of MgcRacGAP-driven Rac1 GTP hydrolysis – biochemical, ADP Hunter fluorescence, primary and confirmatory, confirmation (AID 624330); assay type: functional
T2 sequence (Q9H0H5 whole entry): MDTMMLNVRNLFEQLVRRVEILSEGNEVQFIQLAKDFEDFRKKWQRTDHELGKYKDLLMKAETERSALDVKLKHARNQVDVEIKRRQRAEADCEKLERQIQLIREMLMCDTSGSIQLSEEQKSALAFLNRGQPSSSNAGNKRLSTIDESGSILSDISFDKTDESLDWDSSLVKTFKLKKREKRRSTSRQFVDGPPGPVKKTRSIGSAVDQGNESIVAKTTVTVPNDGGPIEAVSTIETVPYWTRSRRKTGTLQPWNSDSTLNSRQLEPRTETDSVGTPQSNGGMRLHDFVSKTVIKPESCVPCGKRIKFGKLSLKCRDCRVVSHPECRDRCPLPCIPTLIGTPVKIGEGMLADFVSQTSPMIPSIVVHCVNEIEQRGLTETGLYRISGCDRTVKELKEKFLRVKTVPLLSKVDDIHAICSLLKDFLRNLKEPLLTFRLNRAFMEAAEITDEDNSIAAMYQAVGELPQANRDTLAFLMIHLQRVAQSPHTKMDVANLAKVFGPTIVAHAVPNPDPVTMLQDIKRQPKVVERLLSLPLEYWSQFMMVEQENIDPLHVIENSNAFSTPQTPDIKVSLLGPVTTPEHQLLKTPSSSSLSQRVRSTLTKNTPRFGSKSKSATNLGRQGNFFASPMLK

[17] = target: T3, Calpain-2 catalytic subunit (Sus scrofa, UniProt P43367); assay: m-calpain protease blockers, concentration series – biochemical, fluorogenic peptide substrate, dose response (AID 1420); assay type: functional
T3 sequence (P43367 whole entry): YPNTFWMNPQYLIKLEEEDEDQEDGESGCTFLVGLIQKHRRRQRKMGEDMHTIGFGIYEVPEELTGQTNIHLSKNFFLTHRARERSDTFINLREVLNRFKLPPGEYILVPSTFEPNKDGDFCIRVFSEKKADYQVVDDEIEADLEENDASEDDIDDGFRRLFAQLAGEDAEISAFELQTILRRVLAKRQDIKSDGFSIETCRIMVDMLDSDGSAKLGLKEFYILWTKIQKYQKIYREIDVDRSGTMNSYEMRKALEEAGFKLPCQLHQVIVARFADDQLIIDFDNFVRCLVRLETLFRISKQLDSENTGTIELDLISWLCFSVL

[18] = target: Large T antigen (Simian virus 40, UniProt P03070); assay type: functional, Betapolyomavirus macacae;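 note: Confirmatory-stage PubChem screen for compounds that inhibit SV40 T antigen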
[19] = THP-1 cell cytotoxicity, dose response, cytotoxicity control for non-replicating M. tuberculosis project (AID 489025); assay type: functional
[20] = Vero E6 cell cytotoxicity, dose response, cytotoxicity control for non-replicating M. tuberculosis project, secondary assay (AID 492998); assay type: functional, VeroE6; conditions: Vero C1008
[21] = cells; assay type: functional
[22] = test system: H9c2; assay: cells; assay type: functional, cell-based; conditions: Rattus norvegicus, H9c2, Myocardium;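 note: confirmatory concentration-response retest of ultra-high-throughput screening hits for modulation of myocardial damage; cell death induced by hydrogen peroxide oxidative stress; compound pretreatment for 60 min then peroxide exposure for 2 h; potency is for protecting the cells against peroxide damage rather than for killing them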
[23] = Trypanosoma cruzi growth suppression in host cells – NIH3T3 host cells, beta-gal luminescence, confirmation (AID 2044); assay type: functional, cell-based;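 note: intracellular parasites grown in NIH/3T3 mouse fibroblasts as host cells; luminescent beta-galactosidase reporter signal from transgenic T. cruzi replicating inside host cells; inhibitors lower the luminescence signal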
[24] = NIH3T3 cell viability loss – ATP luminescence, mouse fibroblasts, counter-screen, dose response (AID 2010); assay type: functional, cell-based;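 note: cells exposed to compound for about 90 hours before reading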

Paired box protein Pax-8, sequence (Q06710 whole entry): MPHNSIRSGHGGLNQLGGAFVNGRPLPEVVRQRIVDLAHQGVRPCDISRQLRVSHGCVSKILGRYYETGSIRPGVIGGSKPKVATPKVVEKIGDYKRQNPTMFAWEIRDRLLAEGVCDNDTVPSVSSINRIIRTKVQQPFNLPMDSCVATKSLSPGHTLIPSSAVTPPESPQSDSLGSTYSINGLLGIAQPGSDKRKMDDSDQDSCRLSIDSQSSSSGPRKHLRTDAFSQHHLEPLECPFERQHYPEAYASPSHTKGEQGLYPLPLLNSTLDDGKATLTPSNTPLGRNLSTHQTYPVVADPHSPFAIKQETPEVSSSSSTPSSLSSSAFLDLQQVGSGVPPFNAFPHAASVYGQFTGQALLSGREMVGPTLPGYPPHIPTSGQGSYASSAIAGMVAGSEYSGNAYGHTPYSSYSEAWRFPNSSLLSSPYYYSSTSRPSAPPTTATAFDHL
FAD-linked sulfhydryl oxidase ALR, sequence (P55789 whole entry): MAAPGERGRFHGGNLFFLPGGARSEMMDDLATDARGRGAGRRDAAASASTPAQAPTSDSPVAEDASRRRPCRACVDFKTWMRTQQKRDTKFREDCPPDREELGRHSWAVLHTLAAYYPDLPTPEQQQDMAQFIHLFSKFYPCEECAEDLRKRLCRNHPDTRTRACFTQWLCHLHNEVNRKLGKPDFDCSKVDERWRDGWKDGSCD
Luciferin 4-monooxygenase, sequence (P08659 whole entry): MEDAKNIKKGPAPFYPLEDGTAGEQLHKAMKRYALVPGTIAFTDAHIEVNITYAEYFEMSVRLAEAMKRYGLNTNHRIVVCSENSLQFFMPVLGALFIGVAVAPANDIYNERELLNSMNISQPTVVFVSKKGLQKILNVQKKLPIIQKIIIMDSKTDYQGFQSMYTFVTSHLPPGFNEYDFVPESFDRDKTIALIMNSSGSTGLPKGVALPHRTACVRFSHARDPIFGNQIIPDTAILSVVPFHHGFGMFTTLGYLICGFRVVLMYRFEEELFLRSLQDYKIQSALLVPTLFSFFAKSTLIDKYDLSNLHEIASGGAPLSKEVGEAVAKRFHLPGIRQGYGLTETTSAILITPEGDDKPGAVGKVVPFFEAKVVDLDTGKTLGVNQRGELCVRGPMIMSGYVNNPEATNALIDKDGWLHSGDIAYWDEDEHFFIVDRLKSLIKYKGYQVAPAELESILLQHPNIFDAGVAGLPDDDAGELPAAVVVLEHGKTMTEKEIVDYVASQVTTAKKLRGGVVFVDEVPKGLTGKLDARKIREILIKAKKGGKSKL
Large T antigen, sequence (P03070 whole entry): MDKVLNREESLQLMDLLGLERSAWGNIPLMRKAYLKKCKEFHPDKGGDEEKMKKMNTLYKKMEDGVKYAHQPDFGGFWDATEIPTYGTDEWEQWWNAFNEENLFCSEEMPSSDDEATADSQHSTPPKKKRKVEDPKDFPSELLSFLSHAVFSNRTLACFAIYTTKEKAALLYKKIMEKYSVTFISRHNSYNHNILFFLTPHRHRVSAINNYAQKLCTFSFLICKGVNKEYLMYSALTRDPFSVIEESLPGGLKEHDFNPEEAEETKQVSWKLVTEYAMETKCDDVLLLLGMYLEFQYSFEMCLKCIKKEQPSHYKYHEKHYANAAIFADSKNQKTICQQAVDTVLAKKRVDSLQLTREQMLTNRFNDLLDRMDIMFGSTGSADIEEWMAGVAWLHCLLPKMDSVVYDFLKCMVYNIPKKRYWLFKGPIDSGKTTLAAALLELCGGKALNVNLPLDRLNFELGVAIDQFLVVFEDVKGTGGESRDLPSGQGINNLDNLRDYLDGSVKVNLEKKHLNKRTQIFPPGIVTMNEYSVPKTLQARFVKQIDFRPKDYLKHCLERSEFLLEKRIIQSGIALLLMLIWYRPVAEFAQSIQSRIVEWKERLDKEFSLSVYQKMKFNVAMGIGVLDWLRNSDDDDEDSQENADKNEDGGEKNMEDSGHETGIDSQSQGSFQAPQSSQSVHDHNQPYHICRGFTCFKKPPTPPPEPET

O=C(Nc1ncccc1O)c1ccc(S(=O)(=O)NCc2ccco2)cc1
AC50 [1]: 20.7 µM (active)

Cc1cc(Oc2ncccc2[N+](=O)[O-])c2cc(Cl)ccc2n1
AC50 [2]: 0.409 µM (active)

O=C(CN1C(=O)CCC1=O)NNc1ccc2ccccc2c1
EC50 [3]: 3.62 µM (active)
AC50 [2]: 0.09 µM (active)

Cc1ccc(/C=C/c2nc3ccccc3s2)s1
EC50 [4]: 10.7 µM (active)
EC50 [5]: 3.78 µM (active)
AC50 [1]: 4.16 µM (active)

O=C(c1ccc(-c2ccc([N+](=O)[O-])cc2)o1)N1CCCCC1
IC50 [6]: > 50 µM (not active)

Nc1cc2sc(-c3ccc(C(=O)O)cc3)nc2cc1Cl
EC50 [7]: 20.4 µM (active)
EC50 [8]: 17 µM (active)
EC50 [9]: 0.441 µM (active)
EC50 [10]: 1.32 µM (active)
EC50 [11]: > 150 µM (inconclusive)
EC50 [12]: 15.4 µM (active)

Cc1nc(-[n+]2nc(-c3ccncc3)nn2-c2ccccc2)sc1C
AC50 [13]: > 20 µM (inactive)

COc1cccc(S(=O)(=O)N(C)C[C@@H]2Oc3cc(C4=CCCCC4)ccc3S(=O)(=O)N([C@@H](C)CO)C[C@H]2C)c1
AC50 [14]: 14.5 µM (active)
AC50 [15]: 49.6 µM (active)

CCc1ccc(N2CC(C(=O)Nc3ccccc3F)CC2=O)cc1 (centres undefined)
IC50 [6]: > 50 µM (not active)

CNc1nc(N)c(C(=O)C(C)(C)C)s1
AC50 [2]: 4.57 µM (active)

CC(=O)n1nc(-c2cccc(C)c2)nc1SCC(=O)Nc1ccccc1
IC50 [6]: 0.731 µM (active)

Cc1ccn2c(NC3CCCC3)c(-c3ccncc3)nc2c1
AC50 [2]: 1.45 µM (active)
IC50 [16]: 55.3 µM (active)

CS(=O)(=O)c1ccc(C(=O)N2CCc3ccccc3C2)cc1
IC50 [17]: 0.514 µM (not active)

Cc1ccc2c(c1)CCCN2CC(=O)N(C)c1c(N)n(Cc2ccccc2)c(=O)[nH]c1=O
AC50 [2]: 20 µM (active)

CCNCCNc1ccc(Cl)cc1[N+](=O)[O-]
AC50 [13]: > 20 µM (inactive)

O=C(O)c1cccc(NC(=S)NC(=O)c2ccc(-c3ccccc3)cc2)c1
IC50 [17]: > 50 µM (not active)

CC(C)(C)SCCNS(=O)(=O)c1ccc2ccccc2c1
IC50 [17]: > 50 µM (not active)

Cc1ccc(S(=O)(=O)N(C)C[C@@H]2OCCCC[C@H](C)Oc3ccc(NS(=O)(=O)c4ccc(F)cc4)cc3C(=O)N([C@H](C)CO)C[C@H]2C)cc1
AC50 [14]: 5.5 µM (active)
AC50 [15]: 55.9 µM (active)

COc1cc(/C=N/Nc2nc3ccccc3o2)cc(OC)c1O
IC50 [18]: 8.87 µM (active)
AC50 [2]: 0.025 µM (active)

C/C(=N\Nc1nc2ccccc2nc1C)c1ccccc1O
CC50 [19]: > 40 µM (active)
CC50 [20]: > 20 µM (active)
IC50 [21]: 2.54 µM (active)

O=C(c1nc2ccccc2s1)N1CCN(c2ccccn2)CC1
IC50 [6]: > 50 µM (not active)

Cc1cccc(NC(=O)c2cnc3ccccn3c2=O)c1
AC50 [1]: 2.26 µM (active)

C[C@@H]1CN([C@@H](C)CO)C(=O)c2c(c3ccccc3n2C)-c2ccccc2CO[C@H]1CN(C)S(=O)(=O)c1ccccc1F
AC50 [14]: 5.88 µM (active)
AC50 [15]: > 70 µM (inactive)

C[C@@H]1CN([C@H](C)CO)C(=O)c2c(c3ccccc3n2C)-c2ccccc2CO[C@H]1CN(C)C(=O)Nc1cccc(C(F)(F)F)c1
AC50 [14]: 5.56 µM (active)
AC50 [15]: > 70 µM (inactive)

COc1cc(OC)cc(C(=O)n2cnnc2N)c1
IC50 [6]: 0.1 µM (active)

C/C(=N\NC(=O)CCCNc1ccc(C)cc1)c1ccccn1
CC50 [19]: 13.1 µM (active)
CC50 [20]: 14.3 µM (active)
IC50 [21]: 18.4 µM (active)
IC50 [22]: 13.6 µM (active)

COc1cccc(Oc2cnc(N)nc2-c2ccc(OC)cc2O)c1
EC50 [7]: 17.9 µM (inconclusive)
EC50 [8]: 27.6 µM (active)
EC50 [11]: 67.1 µM (active)
EC50 [12]: 10.9 µM (active)

C/C(=N\Nc1cccc(Cl)c1)c1ccncc1
EC50 [23]: 1.42 µM (active)
EC50 [24]: > 60 µM (not active)
AC50 [2]: 0.536 µM (active)

COC(=O)c1ccc(NC2CC(=O)N(c3ccccc3C)C2=O)cc1 (centres undefined)
IC50 [6]: > 50 µM (not active)

CN(C)c1ccc(C2N(c3ccc(F)cc3)C(=O)C3CCCN32)cc1 (centres undefined)
AC50 [2]: 49.4 µM (active)
